Earlier results in patent publication US20140228287A1, “1-[(3-CYANO-PYRIDIN-2-YL)METHYL]-3-METHYL-7-(2-BUTYN-1-YL)-8-[3-(R)-AMINO-PIPERIDIN-1-YL]-AXANTHINE FOR THE TREATMENT OF A METABOLIC DISORDER OF A PREDOMINANTLY CARNIVOROUS NON-HUMAN ANIMAL” (BOEHRINGER INGELHEIM VETMEDICA GMBH, priority 2010, published 2014).

How the values were obtained:
GLP-1 = conditions: after administration to rats and to cats; cited from earlier work
plasma glucagon = conditions: in vivo; cited from earlier work

Structure (SMILES) | effect of GLP-1 (GLP-1) | plasma glucagon concentration in cats (plasma glucagon)
CC#CCn1c(N2CCC[C@@H](N)C2)nc2c1c(=O)n(Cc1nc(C)cc3ccccc13)c(=O)n2C [1-[(3-Methyl-isochinoline-1-yl)methyl]-3-methyl-7-(2-butin-1-yl)-8-((R)-3-amino-piperidine-1-yl)-xanthine] | the effect of GLP-1 could be prolonged | –
N#Cc1ccc(NCCNCC(=O)N2CCC[C@H]2C#N)nc1 [NVP-DPP728] | – | reduce the plasma glucagon concentration
